Data published in patent US12570684B2 (UNIVERSITY OF TENNESSEE RESEARCH FOUNDATION, priority 2020, dated 2026).
Converted amounts (≈) assume the structure as drawn. Like-named read-outs stand apart in the source and are kept apart here.

Columns and labels:
WecA (E. coli) = WecA (E. coli) (Escherichia coli, UniProt P0AC78); test: WecA assay
Procedure: Preparation of membrane fraction P-60 containing WecA. E. coli B21 wecA strain were harvested by centrifugation (4,700 rpm) at 4° C. followed by washing with 0.9% saline solution (thrice). The washed cell pellets were washed with homogenization buffer (containing 50 mM K2HPO4, 5 mM MgCl2, 5 mM 1,4-dithio-DL-threitol, and 10% glycerol, pH=7.2) (thrice), and approximately 5 g of pellet (wet weight) was collected. The washed cell pellets were suspended in homogenization buffer and disrupted by probe sonication on ice (5 s on and 2 s off for 1 min, then cool down for 1.5 min., 5 cycles, cool down for 15 min, and then, 5 s on and 2 s off for 1 min., cool down for 1.5 min, 5 cycles). The resulting suspension was centrifuged at 4,700×g for 15 min. at 4° C. to remove unbroken cells. The lysate was centrifuged at 25,000×g for 20 min. at 4° C. The supernatant was subjected to ultracentrifugation at 60,000×g for 1 h at 4° C. The supernatant was discarded, and the membrane fraction containing WecA enzyme (P-60) was suspended in the Tris-HCl buffer (pH=7.5). Total protein concentrations were approximately 8 to 10 mg/mL. Aliquots were stored in Eppendorf tubes at −80° C.

AglH (M. jannaschii) = molecular target: T1, AglH (M. jannaschii) (Methanocaldococcus jannaschii, UniProt Q58513); test: AglH assay
T1 sequence (Q58513 1-301): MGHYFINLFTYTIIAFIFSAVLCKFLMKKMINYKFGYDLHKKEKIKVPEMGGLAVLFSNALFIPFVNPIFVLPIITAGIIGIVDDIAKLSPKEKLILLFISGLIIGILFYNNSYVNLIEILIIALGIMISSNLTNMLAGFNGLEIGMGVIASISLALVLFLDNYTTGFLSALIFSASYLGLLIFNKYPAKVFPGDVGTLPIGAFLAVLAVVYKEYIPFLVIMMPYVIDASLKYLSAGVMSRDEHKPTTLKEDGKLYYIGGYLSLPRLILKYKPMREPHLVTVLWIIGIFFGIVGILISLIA

WecA = settings: background, reported; cited from earlier work
DPAGT1 (Human) = molecular target: T2, DPAGT1 (Human) (Homo sapiens, UniProt Q9H3H5); test: DPAGT1 assay; type: biochemical
T2 construct: made in house; host or cells: Expi293 cells (suspension)
T2 sequence (Q9H3H5 1-408): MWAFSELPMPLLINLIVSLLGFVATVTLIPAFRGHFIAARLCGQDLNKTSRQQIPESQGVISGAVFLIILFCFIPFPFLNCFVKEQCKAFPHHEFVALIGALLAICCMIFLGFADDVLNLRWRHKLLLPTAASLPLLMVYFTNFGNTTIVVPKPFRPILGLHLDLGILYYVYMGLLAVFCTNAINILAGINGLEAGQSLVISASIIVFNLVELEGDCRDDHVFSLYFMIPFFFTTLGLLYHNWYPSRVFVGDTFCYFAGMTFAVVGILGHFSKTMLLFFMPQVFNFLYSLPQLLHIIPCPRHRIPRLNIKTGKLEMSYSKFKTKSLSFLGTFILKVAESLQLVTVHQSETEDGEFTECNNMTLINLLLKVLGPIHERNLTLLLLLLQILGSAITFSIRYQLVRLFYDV
Procedure: DPAGT1 expression and purification. DPAGT1 was expressed in suspended Expi293 cells for 36 h. The cells were lysed by drawing through a 26 g needle (10 times) and membrane protein was extracted using buffer containing 1% decyl f3-D-maltopyranoside detergent. DPAGT1 was purified using HA-agarose resin and a superdex 200 size exclusion column.

PD002 [1] = test: Scratch (wound healing) assay; type: cell-based; settings: 0.2 μM, 24 h; untreated PD002 63%
Procedure: Scratch Assay. A confluent monolayer was formed in 24-well plates. The monolayer was scratched by a sterile 200 μL pipette tip and washed with PBS to remove cell debris. Complete medium with CPPB (5) (0, 0.05, 0.1, 0.2 μM) were added and scratched areas were photographed with microscope. The scratched cells were incubated at 37° C., 5% CO2. After 24 h, medium was removed and cells were stained with a 1:1 mixture of crystal violet and PBS for 5 min., washed with PBS twice, and photographed with microscope. Wound areas were measured and recovered areas were calculated.

[2] = molecular target: MraY (Hydrogenivirga sp.) (Hydrogenivirga sp. 128-5-R1-1, UniProt Z9Y2G8N0L0); test: MraY assay; type: biochemical
Procedure: Expression and purification of HyMraY. The gene mraY of Hydrogenivirga spp. 128-5-R1-1 was cloned with a N-terminal His6 tag into a pET22b vector. […] The proteins were purified using a nickel, cation exchange, and size exclusion chromatography.
MraY assay. MraY assay substrates, Park's nucleotide-N^ε-C6-dansylthiourea, neryl phosphate, were chemically synthesized according to the reported procedures.^7 Park's nucleotide-N^ε-C6-dansylthiourea (2 mM stock solution, 1.88 jiL), MgCl2 (0.5 M, 5 jiL), KCl (2 M, 5 jiL), Triton X-100 (0.5%, 5.63 jiL), Tris buffer (pH 8.0, 50 mM), neryl phosphate (0.1 M, 2.25 jiL), and inhibitor molecule (0-50 .ig/mL in Tris buffer) were placed in a 1.5 mL Eppendorf tube. […] (26° C.) and quenched with CHCl3 (100 jiL). […] The aqueous phase was assayed via reverse-phase HPLC.

PD002 [3] = test: Checkerboard synergy (FIC index) with paclitaxel; type: cell-based
Procedure: The synergistic or antagonistic activities of CPPB were assessed in vitro via checkerboard technique.

[4] = read-out: IC50 AglH (M. jannaschii)

Sequence of WecA (E. coli) (P0AC78 whole entry): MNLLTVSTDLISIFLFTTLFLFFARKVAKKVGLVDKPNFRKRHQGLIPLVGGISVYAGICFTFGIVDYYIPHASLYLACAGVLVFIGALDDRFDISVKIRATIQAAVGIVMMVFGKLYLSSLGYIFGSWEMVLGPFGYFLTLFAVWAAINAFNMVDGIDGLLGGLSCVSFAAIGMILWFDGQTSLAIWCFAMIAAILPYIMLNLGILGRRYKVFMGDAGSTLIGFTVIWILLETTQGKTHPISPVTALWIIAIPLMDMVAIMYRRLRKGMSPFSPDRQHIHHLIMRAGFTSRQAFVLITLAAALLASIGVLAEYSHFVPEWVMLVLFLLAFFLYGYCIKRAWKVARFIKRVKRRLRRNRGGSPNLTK
Sequence of MraY (Hydrogenivirga sp.) (Z9Y2G8N0L0 7-365 limits assumed): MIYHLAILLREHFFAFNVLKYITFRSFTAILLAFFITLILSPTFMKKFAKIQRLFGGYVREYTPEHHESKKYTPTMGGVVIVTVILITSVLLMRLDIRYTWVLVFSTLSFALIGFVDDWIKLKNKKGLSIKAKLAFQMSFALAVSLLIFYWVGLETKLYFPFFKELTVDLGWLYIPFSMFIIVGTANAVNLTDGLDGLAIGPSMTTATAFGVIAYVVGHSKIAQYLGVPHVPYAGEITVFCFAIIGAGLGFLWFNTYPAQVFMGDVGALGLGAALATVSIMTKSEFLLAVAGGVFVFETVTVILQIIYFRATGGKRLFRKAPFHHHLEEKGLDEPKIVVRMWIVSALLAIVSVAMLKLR

COC1C(O)[C@H](n2ccc(=O)[nH]c2=O)O[C@@H]1[C@@H](O[C@H]1OC(CNCc2ccc(N3CCC(c4ccc(OC(F)(F)F)cc4)CC3)cc2)=C[C@H](O)[C@@H]1O)C(N)=O (stereo partly drawn) [CPPA, (2R)-2-(((2S,3S,4S)-3,4-Dihydroxy-6-(((4-(4-(4-(trifluoromethoxy)phenyl)piperidin-1-yl)benzyl)-amino)-methyl)-3,4-dihydro-2H-pyran-2-yl)oxy)-2-((2S,5R)-5-(2,4-dioxo-3,4-dihydropyrimidin-1(2H)-yl)-4-hydroxy-3-methoxytetrahydrofuran-2-yl)acetamide]
IC50 (WecA (E. coli)): > 50 µM | IC50 (AglH (M. jannaschii)): > 50 µM

CCCCc1ccc(NC(=O)C2=CCN(C)[C@@H]([C@H](O[C@@H]3O[C@H](CN)[C@@H](O)[C@H]3O)[C@H]3O[C@@H](n4ccc(=O)[nH]c4=O)[C@H](O)[C@@H]3O)C(=O)N2C)cc1 [CPZEN-45]
IC50 WecA (WecA): ~0.058 µg/mL (≈ 0.0842 µM)

COC1C(O)[C@@H]([C@@H](O[C@H]2OC(C(=O)NCc3ccc(N4CCC(c5ccc(OC(F)(F)F)cc5)CC4)cc3)=C[C@H](O)[C@@H]2O)C(N)=O)O[C@H]1n1ccc(=O)[nH]c1=O (stereo partly shown) [I-CPPB]
IC50 (DPAGT1 (Human)): 0.6 µM | IC50 (WecA (E. coli)): 20 µM | IC50 (AglH (M. jannaschii)): 15 µM

Nc1ccn([C@@H]2O[C@H](CO)[C@@H](O)C2(F)F)c(=O)n1 [Gemcitabine]
wound-healing rate (PD002 [1]): 43%

(2S,3S,4S)-2-((1R)-2-Amino-1-(2S,5R)-5-(2,4-dioxo-3,4-dihydropyrimidin-1(2H)-yl)-3,4-dimethoxy-tetrahydrofuran-2-yl)-2-oxoethoxy)-3,4-dihydroxy-N-(4-(4-(4-(trifluoromethoxy)-phenyl)piperidin-1-yl)benzyl)-3,4-dihydro-2H-pyran-6-carboxamide [OM-CPPB]
DPAGT1 inhibitory activity (in words) (DPAGT1 (Human)): very low- or no-DPAGT1 inhibitor | IC50 (DPAGT1 (Human)): 20 µM | IC50 (WecA (E. coli); read-out: IC50 WecA (E. coli)): 10 µM | IC50 (AglH (M. jannaschii); [4]): 30 µM | IC50 [2]: 5 µM

COC1C(O)C(C(OC2OC(C(=O)NC3CCCCNC3=O)=CC(O)C2O)C(N)=O)OC1n1ccc(=O)[nH]c1=O [iso-Capuramycin, (2S,3S,4S)-2-((1R)-2-Amino-1-(2S,5R)-5-(2,4-dioxo-3,4-dihydropyrimidin-1(2H)-yl)-3-hydroxy-4-methoxytetrahydrofuran-2-yl)-2-oxoethoxy)-3,4-dihydroxy-N—((S)-2-oxoazepan-3-yl)-3,4-dihydro-2H-pyran-6-carboxamide]
IC50 (DPAGT1 (Human)): 11.5 µM | IC50 (WecA (E. coli)): 30 µM | IC50 (AglH (M. jannaschii)): 20 µM

NC(=O)[C@H](O[C@H]1OC(C(=O)NCc2ccc(N3CCC(c4ccc(OC(F)(F)F)cc4)CC3)cc2)=C[C@H](O)[C@@H]1O)[C@H]1O[C@@H](n2ccc(=O)[nH]c2=O)C(O)C1O (stereo partly drawn) [DM-CPPB, (2S,3S,4S)-2-((1R)-2-Amino-1-((2S,5R)-5-(2,4-dioxo-3,4-dihydropyrimidin-1(2H)-yl)-3,4-dihydroxy-tetrahydrofuran-2-yl)-2-oxoethoxy)-3,4-dihydroxy-N-(4-(4-(4-(trifluoromethoxy)phenyl)-piperidin-1-yl)benzyl)-3,4-dihydro-2H-pyran-6-carboxamide]
IC50 (WecA (E. coli)): 30 µM | IC50 (AglH (M. jannaschii)): > 50 µM

CC(=O)O[C@H]1C(=O)[C@@]2(C)[C@H]([C@H](OC(=O)c3ccccc3)[C@]3(O)C[C@H](OC(=O)[C@H](O)[C@@H](NC(=O)c4ccccc4)c4ccccc4)C(C)=C1C3(C)C)[C@]1(OC(C)=O)CO[C@@H]1C[C@@H]2O [Paclitaxel, reference compound]
IC50 (PD002 [3]; PD002, alone, read-out: IC50 of the single agent against PD002): 1.25 µM | IC50 (PD002 [3]; PD002, read-out: IC50 CB (paclitaxel in combination), entry 1, with CPPB 0.10 μM): 0.63 µM | IC50 (PD002 [3]; PD002, read-out: IC50 CB (paclitaxel in combination), entry 2, with CPPB 0.10 μM): 0.16 µM | IC50 (PD002 [3]; PD002, read-out: IC50 CB (paclitaxel in combination), entry 3, with CPPB 0.20 μM): 0.0049 µM | IC50 (PD002 [3]; PD002, read-out: IC50 CB (paclitaxel in combination), entry 4, with CPPB 0.20 μM): 0.02 µM | IC50 (PD002 [3]; PD002, read-out: IC50 CB (paclitaxel in combination), entry 5, with CPPB 0.20 μM): 0.031 µM | IC50 (PD002 [3]; PD002, read-out: IC50 CB (paclitaxel in combination), entry 6, with CPPB 2.0 μM): 0.02 µM | IC50 (PD002 [3]; PD002, read-out: IC50 CB (paclitaxel in combination), entry 7, with CPPB 2.0 μM): 0.039 µM | IC50 (PD002 [3]; PD002, read-out: IC50 CB (paclitaxel in combination), entry 8, with CPPB 2.0 μM): 0.31 µM | IC50 (PD002 [3]; PD002, read-out: IC50 of paclitaxel against PD002 in combination with CPPB, with CPPB (0.1-2.0 μM)): 0.024 to 0.61 µM | improvement of cytostatic activity of paclitaxel (PD002 [3]; in combination with CPPB (0.2-2.0 μM)): over 250 times

(2R)-2-(((2S,3S,4S)-3,4-dihydroxy-6-(((4-(4-(4-(trifluoromethoxy)phenyl)pipendin-1-yl)-benzyl)amino)methyl)-3,4-dihydro-2H-pyran-2-yl)oxy)-2-((2S,5R)-5-(2,4-dioxo-3,4-dihydro-pyrimidin-1(2H)-yl)-3-hydroxy-4-methoxytetrahydrofuran-2-yl)acetamide [I-CPPA]
IC50 (DPAGT1 (Human)): > 50 µM | DPAGT1 inhibition at 50 μM (DPAGT1 (Human); 50 μM concentration): did not inhibit | WecA inhibition at 50 μM (WecA (E. coli); 50 μM concentration): did not inhibit | IC50 (WecA (E. coli); read-out: IC50 WecA (E. coli)): > 50 µM | AglH inhibition at 50 μM (AglH (M. jannaschii); 50 μM concentration): did not inhibit | IC50 (AglH (M. jannaschii); [4]): > 50 µM | IC50 [2]: > 50 µM | MraY inhibition at 50 μM ([2]; 50 μM concentration): did not inhibit

NC(=O)[C@H](O[C@H]1OC(C(=O)N[C@H]2CCCCNC2=O)=C[C@H](O)[C@@H]1O)[C@H]1O[C@@H](n2ccc(=O)[nH]c2=O)C(O)C1O (stereo partly drawn) [Dimethyl capuramycin, (2S,3S,4S)-2-((1R)-2-Amino-1-((2S,5R)-5-(2,4-dioxo-3,4-dihydropyrimidin-1(2H)-yl)-3,4-dihydroxy-tetrahydrofuran-2-yl)-2-oxoethoxy)-3,4-dihydroxy-N—((S)-2-oxoazepan-3-yl)-3,4-dihydro-2H-pyran-6-carboxamide]
IC50 (DPAGT1 (Human)): > 50 µM | IC50 (WecA (E. coli)): 35 µM | IC50 (AglH (M. jannaschii)): > 50 µM | IC50 [2]: > 50 µM
